Several values for one entry are separate records, joined by “and”; a condition that tells them apart may be missing. Equal entries are not always repeated. Where no end group is shown, it is not given here. [ ]: non-standard residue; d: D form. Hyp = O=C(O)[C@@H]1C[C@@H](O)CN1
How the values were obtained:
Assay type in all cases: cell-based
[1] = test system: human dermal fibroblasts; experiment: Blyscan glycosaminoglycan assay, proteoglycan synthesis by dermal fibroblasts; details: 0.5 mg/ml, two weeks stimulation; for increase in the synthesis of proteoglycans by dermal fibroblasts compared to untreated controls: hydroxylated peptides
Protocol: The human cells used were obtained from tebu-bio GmbH, Offenbach, Germany. The chondrocytes (Cat. No. 402-05a) or dermal fibroblasts (Cat. No. 106-05a) were first sown in 12-well culture plates and cultured at 37° C., 5% CO2 in Ham's F12 medium, to which 10% fetal calf serum, 20 U/ml penicillin-streptomycin and 50 μg/ml ascorbic acid were added. On every other day, the culture medium was replaced by new culture medium until the cells had reached 80% confluence. […] The Blyscan glycosaminoglycan assay (Article No. 054B3000, 2019, tebu-bio, Offenbach, Germany, or Biocolor Ltd., UK) was used to determine proteoglycans. The biosynthesis of proteoglycans was determined after stimulating dermal fibroblasts for two weeks. According to the manufacturer's instructions, after discarding the culture medium, the cell layers were covered with 1 ml of papain extraction solution and incubated for three hours at 65° C. with vigorous shaking. The cell suspensions were then centrifuged (10,000 g, 10 min) and the supernatants were collected. After adding 1 ml of Blyscan dye solution and shaking (30 min), the supernatants were centrifuged again (12,000 rpm, 10 min) and then discarded. The isolated proteoglycan pellets were resuspended in 500 μl of dissociation solution. A photometric determination of the synthesized proteoglycan in 200 μl sample solution was carried out at a wavelength of 656 nm in comparison to untreated control experiments.

[2] = test system: human chondrocytes; experiment: Sircol collagen assay, collagen synthesis by chondrocytes; details: 0.5 mg/ml peptide, three weeks stimulation
Protocol: (§1) The human cells used were obtained from tebu-bio GmbH, Offenbach, Germany. The chondrocytes (Cat. No. 402-05a) or dermal fibroblasts (Cat. No. 106-05a) were first sown in 12-well culture plates and cultured at 37° C., 5% CO2 in Ham's F12 medium, to which 10% fetal calf serum, 20 U/ml penicillin-streptomycin and 50 μg/ml ascorbic acid were added. On every other day, the culture medium was replaced by new culture medium until the cells had reached 80% confluence. […] To investigate the collagen metabolism, the amount of newly synthesized collagen was determined after stimulating the cells with 0.5 mg/ml BCP for three weeks. The synthesized collagen was isolated using the Sircol assay (Article No. 054S5000, 2019, tebu-bio, Offenbach, Germany, or Biocolor Ltd., UK) according to the manufacturer's instructions. In brief, the culture medium was initially discarded and the adherent cell layers were digested with 0.1 mg pepsin solution in 0.5 M acetic acid at 4° C. overnight. The cell suspensions were neutralized by adding 100 μl of an acid-neutralizing reagent. The synthesized collagen was then separated off by adding 200 μl of an isolation and concentration solution with vigorous shaking at 4° C. overnight. After centrifugation (12,000 rpm, 10 min) and discarding the supernatant, the isolated collagen was resuspended in 1 ml of Sircol dye solution. After 30 minutes of shaking and another centrifugation, the collagen pellet was covered with 750 μl of cold acidic solid washing reagent. After another centrifugation, the supernatant was again discarded and the enriched collagen was taken up in 250 μl of alkaline solution. In each case 200 μl of the sample solutions were used for photometric quantification of the synthesized collagen. The absorbance was measured at a wavelength of 492 nm. The amount of collagen synthesized in each case was determined on the basis of standardized collagen solutions.

[3] = test system: human chondrocytes; experiment: Blyscan glycosaminoglycan assay, proteoglycan synthesis by chondrocytes; details: 0.5 mg/ml; for increase in collagen synthesis (in the proteoglycan assay, chondrocytes): hydroxylated peptides
[4] = test system: human dermal fibroblasts; experiment: Sircol collagen assay, collagen synthesis by dermal fibroblasts; details: 0.5 mg/ml peptide, three weeks stimulation
Protocol: as §1

Gly-Ala-4Hyp-Gly-Pro-Pro-Gly-Pro-4Hyp-Gly-Ala-Arg-Gly-Gln-Ala-Gly-Val-Met-Gly-Phe-4Hyp-Gly-Pro-Lys [SEQ ID No. 10]
increase in the synthesis of proteoglycans by dermal fibroblasts compared to untreated controls [1]: 25%
increase in collagen synthesis by chondrocytes compared to untreated controls [2]: 20%
increase in collagen synthesis (in the proteoglycan assay, chondrocytes) [3]: 29%
increase in collagen synthesis by dermal fibroblasts compared to untreated controls [4]: 35%

Gly-Pro-4Hyp-Gly-Pro-Ala-Gly-Glu-Lys-Gly-Ala-4Hyp-Gly-Ala-Asp-Gly-Pro-Ala-Gly-Ala-4Hyp-Gly-Thr-Pro-Gly-Pro-Gln-Gly-Ile-Ala-Gly-Gln-Arg-Gly-Val (GP[Hyp]GPAGEKGA[Hyp]GADGPAGA[Hyp]GTPGPQGIAGQRGV) [SEQ ID No. 22, collagen peptide comprising 35 amino acids]
increase in the synthesis of proteoglycans by dermal fibroblasts compared to untreated controls [1]: 28%
increase in collagen synthesis by chondrocytes compared to untreated controls [2]: 46%
increase in collagen synthesis (in the proteoglycan assay, chondrocytes) [3]: 26%
increase in collagen synthesis by dermal fibroblasts compared to untreated controls [4]: 43%

Gly-Ala-4Hyp-Gly-Lys-Asp-Gly-Val-Arg-Gly-Leu-Thr-Gly-Pro-Ile-Gly-Pro-4Hyp-Gly-Pro-Ala-Gly-Ala-4Hyp-Gly-Asp-Lys-Gly-Glu-Ala-Gly-Pro-Ser (GA[Hyp]GKDGVRGLTGPIGP[Hyp]GPAGA[Hyp]GDKGEAGPS) [SEQ ID No. 7, collagen peptide comprising 33 amino acids]
increase in the synthesis of proteoglycans by dermal fibroblasts compared to untreated controls [1]: 41%
increase in collagen synthesis by chondrocytes compared to untreated controls [2]: 28%
increase in collagen synthesis (in the proteoglycan assay, chondrocytes) [3]: 30%
increase in collagen synthesis by dermal fibroblasts compared to untreated controls [4]: 42%

Lys-Gly-Ala-4Hyp-Gly-Ala-Asp-Gly-Pro-Ala-Gly-Ala-4Hyp-Gly-Thr-Pro-Gly-Pro-Gln (KGA[Hyp]GADGPAGA[Hyp]GTPGPQ) [SEQ ID No. 21, collagen peptide comprising 19 amino acids]
increase in the synthesis of proteoglycans by dermal fibroblasts compared to untreated controls [1]: 27%
increase in collagen synthesis by chondrocytes compared to untreated controls [2]: 55%
increase in collagen synthesis (in the proteoglycan assay, chondrocytes) [3]: 22%
increase in collagen synthesis by dermal fibroblasts compared to untreated controls [4]: 36%

Gly-Pro-4Hyp-Gly-Pro-Val-Gly-Thr-Lys-Gly-Ile-4Hyp-Gly-Val-Tyr-Gly-Pro-Leu-Gly-Ile-4Hyp-Gly-Thr-Pro-Gly-Pro-Trp-Gly-Ile-Leu-Gly-Thr-Lys-Arg-Gly-Val (GP[Hyp]GPVGTKGI[Hyp]GVYGPLGI[Hyp]GTPGPWGILGTKRGV) [SEQ ID No. 24, collagen peptide comprising 36 amino acids]
increase in the synthesis of proteoglycans by dermal fibroblasts compared to untreated controls [1]: 26%
increase in collagen synthesis by chondrocytes compared to untreated controls [2]: 26%
increase in collagen synthesis (in the proteoglycan assay, chondrocytes) [3]: 15% and 26%
increase in collagen synthesis by dermal fibroblasts compared to untreated controls [4]: 36%

KGAPGADGPAGAPGTPGPQ [SEQ ID No. 15, collagen peptide comprising 19 amino acids]
increase in collagen synthesis (in the proteoglycan assay, dermal fibroblasts) ([1]; non-hydroxylated peptides): 18%
increase in collagen synthesis by chondrocytes compared to untreated controls [2]: 31%
increase in the synthesis of proteoglycans by chondrocytes compared to untreated controls ([3]; non-hydroxylated peptides): 6%
increase in collagen synthesis by dermal fibroblasts compared to untreated controls [4]: 23%

Gly-Ala-4Hyp-Gly-Lys-Asp-Gly-Val-Arg-Gly-Leu-Thr-Gly-Pro-Ile-Gly-Pro-4Hyp-Gly-Pro-Ala-Gly-Ala-Arg (GA[Hyp]GKDGVRGLTGPIGP[Hyp]GPAGAR) [SEQ ID No. 9, collagen peptide comprising 24 amino acids]
increase in the synthesis of proteoglycans by dermal fibroblasts compared to untreated controls [1]: 27%
increase in collagen synthesis by chondrocytes compared to untreated controls [2]: 24%
increase in collagen synthesis (in the proteoglycan assay, chondrocytes) [3]: 19%
increase in collagen synthesis by dermal fibroblasts compared to untreated controls [4]: 38%

Reference: patent US20220073592A1, “SYNTHETIC AND RECOMBINANT COLLAGEN PEPTIDES HAVING BIOLOGICAL ACTIVITY” (GELITA AG, priority 2018, published 2022)
